According to ChEMBL document CHEMBL4229476, “Studies directed toward the asialoglycoprotein receptor mediated delivery of 5-fluoro-2'-deoxyuridine for hepatocellular carcinoma” (Bioorg Med Chem Lett, 2018):
Active and inactive are the calls of the source. No cut-off for these calls is given here.

System: HepG2
Assay: Cytotoxicity against human HepG2 cells at 1.5 to 200 uM after 72 hrs by WST1 assay
Assay type: functional, cell-based

With `CC(=O)N[C@H]1[C@H](OCCCCCCNC(=O)CCOCC(COCCC(=O)NCCCCCCO[C@@H]2O[C@H](CO)[C@H](O)[C@H](O)[C@H]2NC(C)=O)(COCCC(=O)NCCCCCCO[C@@H]2O[C@H](CO)[C@H](O)[C@H](O)[C@H]2NC(C)=O)NC(=O)CCCC(=O)NCCCCCCOP(=O)(O)OC[C@H]2O[C@@H](n3cc(F)c(=O)[nH]c3=O)C[C@@H]2O)O[C@H](CO)[C@H](O)[C@@H]1O` the Activity was “Active”.
In the case of `O=c1[nH]c(=O)n([C@H]2C[C@H](O)[C@@H](CO)O2)cc1F`, the Activity is reported as “Active”.
